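Cultured in 96-well plates, cells were exposed to test compound for 48 hours across five concentrations. GI50 is the concentration that inhibits growth by half.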 Calls of active or inactive are those of the source. Rule as the data show it: active = GI50 up to about 1.1 µM and inactive = higher. Where a SMILES comes first, the peptide text is derived from it. The star is where a group is joined. Boc = CC(C)(C)OC(=O)*
Experiments:
Experiment in all cases: NCI-60 cell line screen, 48 h
UACC-62 = tested on: UACC-62
RXF 393 = tested on: RXF 393
SNB-75 = tested on: SNB-75
MCF7 = tested on: MCF7
PC-3 = tested on: PC-3
CCRF-CEM = tested on: CCRF-CEM
MOLT-4 = tested on: MOLT-4
KM12 = tested on: KM12
OVCAR-3 = tested on: OVCAR-3
SNB-19 = tested on: SNB-19
DU-145 = tested on: DU-145
HCT-15 = tested on: HCT-15
OVCAR-5 = tested on: OVCAR-5
MDA-MB-231 = tested on: MDA-MB-231
SK-MEL-28 = tested on: SK-MEL-28
SN12C = tested on: SN12C
NCI-H460 = tested on: NCI-H460
HOP-92 = tested on: HOP-92

Compound | GI50 (UACC-62) | GI50 (RXF 393) | GI50 (SNB-75) | GI50 (MCF7) | GI50 (PC-3) | GI50 (CCRF-CEM) | GI50 (MOLT-4) | GI50 (KM12) | GI50 (OVCAR-3) | GI50 (SNB-19) | GI50 (DU-145) | GI50 (HCT-15) [µM] | GI50 (OVCAR-5) | GI50 (MDA-MB-231) | GI50 (SK-MEL-28) | GI50 (SN12C) | GI50 (NCI-H460) | GI50 (HOP-92)
C[N+]1(C)C2CC(OC(=O)C(CO)c3ccccc3)CC1C1OC12 (configuration not stated) | > 100 µM (inactive) | > 100 µM (inactive) | > 100 µM (inactive) | > 100 µM (inactive) | > 100 µM (inactive) | > 100 µM (inactive) | > 100 µM (inactive) | > 100 µM (inactive) | > 100 µM (inactive) | > 100 µM (inactive) | > 100 µM (inactive) | > 100 | > 100 µM (inactive) | > 100 µM (inactive) | > 100 µM (inactive) | > 100 µM (inactive) |  | 
O=C1CC(C(OCc2ccccc2)C(OCc2ccccc2)C(OCc2ccccc2)C(COCc2ccccc2)OCc2ccccc2)CC(=O)N1 (configuration not stated) |  | 6.52 µM (inactive) | > 100 µM (inactive) |  | > 100 µM (inactive) | > 100 µM (inactive) | 59 µM (inactive) |  | > 100 µM (inactive) | > 100 µM (inactive) | > 100 µM (inactive) | > 100 | > 100 µM (inactive) |  | > 100 µM (inactive) | > 100 µM (inactive) | > 100 µM (inactive) | 18 µM (inactive)
CC(C)=NN/C(=N\c1ccc(Cl)cc1)NS(=O)(=O)c1cc2ccccc2s1 | > 100 µM (inactive) |  |  | 53 µM (inactive) | 45.7 µM (inactive) | 40.4 µM (inactive) | 16.6 µM (inactive) | 90.4 µM (inactive) | 57 µM (inactive) | > 100 µM (inactive) | > 100 µM (inactive) | 71.8 | 32.7 µM (inactive) | > 100 µM (inactive) | > 100 µM (inactive) | 50.7 µM (inactive) | > 100 µM (inactive) | 38.9 µM (inactive)
COc1ccc(/C=N/Nc2nnc3c(n2)c2ccccc2c2nn(-c4ccccc4Cl)nc23)cc1 | > 100 µM (inactive) | > 100 µM (inactive) | > 100 µM (inactive) |  | > 100 µM (inactive) | > 100 µM (inactive) | > 100 µM (inactive) | > 100 µM (inactive) | > 100 µM (inactive) | > 100 µM (inactive) | > 100 µM (inactive) | > 100 | > 100 µM (inactive) | > 100 µM (inactive) | > 100 µM (inactive) | > 100 µM (inactive) |  | > 100 µM (inactive)
COc1ccc(/C=C2/S/C(=N\c3ccccc3)N(NC(=O)Cc3ccccc3)C2=O)c(OC)c1 | > 100 µM (inactive) | > 100 µM (inactive) | > 100 µM (inactive) | > 100 µM (inactive) |  | 82.6 µM (inactive) | 68.7 µM (inactive) | > 100 µM (inactive) | > 100 µM (inactive) | > 100 µM (inactive) | > 100 µM (inactive) | > 100 | > 100 µM (inactive) | 69 µM (inactive) | > 100 µM (inactive) | > 100 µM (inactive) | > 100 µM (inactive) | 3.37 µM (inactive)
CO/N=C(\C(=O)[N-]n1cn[n+](CC(=O)OC(C)(C)C)c1)c1csc(NC(c2ccccc2)(c2ccccc2)c2ccccc2)n1 |  | > 10 µM (inactive) | > 10 µM (inactive) | > 10 µM (inactive) | > 10 µM (inactive) | > 10 µM (inactive) | > 10 µM (inactive) | > 10 µM (inactive) | > 10 µM (inactive) | > 10 µM (inactive) | > 10 µM (inactive) | > 10 | > 10 µM (inactive) |  | > 10 µM (inactive) | > 10 µM (inactive) | > 10 µM (inactive) | > 10 µM (inactive)
Nc1cc(N2CCOCC2)nc(=O)n1-c1ccc(Cl)cc1 | > 100 µM (inactive) |  | > 100 µM (inactive) | > 100 µM (inactive) | > 100 µM (inactive) | > 100 µM (inactive) | > 100 µM (inactive) | > 100 µM (inactive) | > 100 µM (inactive) | > 100 µM (inactive) | > 100 µM (inactive) | > 100 | > 100 µM (inactive) |  | > 100 µM (inactive) | > 100 µM (inactive) | > 100 µM (inactive) | > 100 µM (inactive)
CC(=O)Nc1ccc2cc(C#N)c(=O)[nH]c2n1 |  | > 100 µM (inactive) | > 100 µM (inactive) | > 100 µM (inactive) | > 100 µM (inactive) |  | > 100 µM (inactive) | 64.3 µM (inactive) | > 100 µM (inactive) | > 100 µM (inactive) |  | > 100 | > 100 µM (inactive) | > 100 µM (inactive) | > 100 µM (inactive) | > 100 µM (inactive) | > 100 µM (inactive) | > 100 µM (inactive)
O=C1NC(Nc2cccc(Cl)c2)=N/C1=C\c1ccc(Cl)c(Cl)c1 | 10.1 µM (inactive) | 3.21 µM (inactive) | 13.3 µM (inactive) | 3.01 µM (inactive) | 3.66 µM (inactive) | 3.45 µM (inactive) | 3.37 µM (inactive) | 3.37 µM (inactive) | 5.14 µM (inactive) | 7.74 µM (inactive) | 7.52 µM (inactive) | 5.28 | 7.91 µM (inactive) |  | 12.7 µM (inactive) | 2.54 µM (inactive) | 2.24 µM (inactive) | 3.48 µM (inactive)
CC1(C)CS(=O)(=O)CC(C)(C)C(=N/N)/C1=N\N | > 100 µM (inactive) |  | > 100 µM (inactive) | > 100 µM (inactive) | > 100 µM (inactive) |  |  | > 100 µM (inactive) | > 100 µM (inactive) | > 100 µM (inactive) | > 100 µM (inactive) | > 100 | > 100 µM (inactive) |  | > 100 µM (inactive) | > 100 µM (inactive) | > 100 µM (inactive) | > 100 µM (inactive)
O=C(O)C1Cc2ccccc2OC1=O (configuration not stated) | > 100 µM (inactive) | > 100 µM (inactive) |  | > 100 µM (inactive) | > 100 µM (inactive) |  | > 100 µM (inactive) | > 100 µM (inactive) | > 100 µM (inactive) | > 100 µM (inactive) | > 100 µM (inactive) | > 100 | > 100 µM (inactive) | > 100 µM (inactive) | > 100 µM (inactive) | > 100 µM (inactive) | > 100 µM (inactive) | 
O=C1Oc2ccccc2C(=O)/C1=C/N1C(=O)CNC1=S | > 100 µM (inactive) | 26.9 µM (inactive) |  | > 100 µM (inactive) | > 100 µM (inactive) | 80.2 µM (inactive) | > 100 µM (inactive) | > 100 µM (inactive) | > 100 µM (inactive) | > 100 µM (inactive) | > 100 µM (inactive) | > 100 | > 100 µM (inactive) | > 100 µM (inactive) | > 100 µM (inactive) | > 100 µM (inactive) | 63 µM (inactive) | 
Cc1ccc(-c2nc3n(c2/C=N\N=C(N)N)CCS3)cc1 | 18.1 µM (inactive) | 15.8 µM (inactive) | 10.9 µM (inactive) |  | 15 µM (inactive) | 22.1 µM (inactive) | 45.8 µM (inactive) | 15 µM (inactive) |  | 15.1 µM (inactive) | 13.8 µM (inactive) | 17.5 | 16.3 µM (inactive) | 16.3 µM (inactive) | 15.7 µM (inactive) | 16.1 µM (inactive) | 18 µM (inactive) | 19.4 µM (inactive)
Cc1cc2c(c(S(=O)(=O)c3ccc(Cl)cc3[N+](=O)[O-])c1)NCCC2 | 8.11 µM (inactive) | > 100 µM (inactive) | > 100 µM (inactive) | 59.6 µM (inactive) | 9.64 µM (inactive) |  |  | 35.1 µM (inactive) | > 100 µM (inactive) | > 100 µM (inactive) | 94.4 µM (inactive) | 70.8 | > 100 µM (inactive) | > 100 µM (inactive) | > 100 µM (inactive) | > 100 µM (inactive) | 74.1 µM (inactive) | 
Cc1ccc(/C=C2\CCCc3ccccc3C2=O)cc1 | 9.51 µM (inactive) |  | 21.2 µM (inactive) | 18.3 µM (inactive) | 14.7 µM (inactive) | 15.1 µM (inactive) | 17.7 µM (inactive) | 4.11 µM (inactive) | 15 µM (inactive) | 19.5 µM (inactive) | 22.2 µM (inactive) | 6.64 | 10.3 µM (inactive) | 9.62 µM (inactive) | 22.4 µM (inactive) | 11.7 µM (inactive) | 7.23 µM (inactive) | 18.5 µM (inactive)
CNC(=O)CNC(=O)C(NC(=O)CNC(=O)C1CCCN1C(=O)C(C)NC(=O)C(NC(=O)OC(C)(C)C)C(C)C)C(C)C (configuration not stated) (Boc-VAPGVG-NHMe; configuration not given here) | > 100 µM (inactive) |  | > 100 µM (inactive) | > 100 µM (inactive) | > 100 µM (inactive) | > 100 µM (inactive) | > 100 µM (inactive) |  | > 100 µM (inactive) | > 100 µM (inactive) | > 100 µM (inactive) | > 100 | > 100 µM (inactive) | > 100 µM (inactive) | > 100 µM (inactive) | > 100 µM (inactive) | > 100 µM (inactive) | > 100 µM (inactive)
CC(C)=CC[C@H]1C[C@]2(CC=C(C)C)C(=O)[C@@](CC=C(C)C)(C(=O)C(C(=O)c3ccccc3)=C2O)C1(C)C [6-EPI-CLUSIANONE] | 3.44 µM (inactive) | 6.75 µM (inactive) | 7.28 µM (inactive) | 4.59 µM (inactive) | 4.78 µM (inactive) |  | 4.56 µM (inactive) | 3.88 µM (inactive) |  | 5.21 µM (inactive) |  | 5.04 | 4.98 µM (inactive) | 6.01 µM (inactive) | 10.2 µM (inactive) | 3.49 µM (inactive) | 3.3 µM (inactive) | 4.31 µM (inactive)

Reference: ChEMBL document CHEMBL1201862, “PubChem BioAssay data set” (2004)
